For twelve compounds, TGI and GI50 results are on record in PubChem BioAssay (NCI).

Test in all cases: inhibition of tumour cell growth, NCI panel, 48 h
Experiment [1] relates to UACC-62 melanoma.
In experiment [2] the test system is KM12 colon.
Experiment [3] concerns SN12C renal.
Experiment [4] has as its system U251 CNS.
Experiment [5] concerns UACC-257 melanoma.
For experiment [6], the system named is IGROV1 ovarian.
Experiment [7] deals with HCT-116 colon.
The subject of experiment [8] is NCI-H23 lung.
In experiment [9] the test system is SW-620 colon.
The test system of experiment [10] is EKVX NSCLC.

Molecules are shown by their SMILES.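 Step 1: Grow cells in 96-well plates. Step 2: Expose to compound for 48 hours at 5 concentrations. Step 3: Interpolate endpoints linearly; if unreached, use highest concentration. Here, GI50 denotes the concentration required for 50% inhibition of growth. Definition used: TGI = concentration required for complete inhibition of growth.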 Where only a bound is given, the exact number is not on record here.

For `CCOC(=O)C(=[N+]=[N-])[Si](C)(C)C`, the TGI in [1] was above 100 µM; in [2] it was above 100 µM; in experiment [3], above 100 µM; in experiment [4], 69.2 µM; in [5], above 100 µM; in experiment [6], above 100 µM. The TGI in experiment [7], in [8] and in experiment [9] was above 100 µM in each case.
On to `CCCC(=O)Nc1cc2c3c(c1)CCCN3CCC2`, for which the TGI in experiment [1], in experiment [2], in experiment [3], in experiment [4], in experiment [5] and in experiment [6] was above 10 µM in each case. Also, the TGI in experiment [7], in experiment [8] and in experiment [9] was above 10 µM throughout.
With `C1=CC(N(c2ccccc2)C2C=CCCC2)CCC1` (configuration not stated), the TGI in experiment [10], in experiment [1], in [3], in experiment [4], in [6] and in experiment [7] was above 100 µM in each case. Further, the TGI in [8] and in experiment [9] was above 100 µM each time.
For `Cn1cc(C2=C(c3cn(CCCCO)c4ccccc34)C(=O)NC2=O)c2ccccc21`, the GI50 in experiment [1] was 9.07 µM; in experiment [2], 7.09 µM; in [3], 7.17 µM; in experiment [4] it was 8.55 µM; in [5] it was 19.8 µM; in [6], 12.2 µM. In addition, the GI50 in experiment [7] is 7.63 µM; in experiment [8] it was 10.1 µM; in experiment [9], 9.26 µM. Moreover, the TGI is above 24.1 µM in experiment [1]; above 23 µM in [2]; above 25 µM in [3]; above 25 µM in [4]; above 25 µM in experiment [5]; above 22.9 µM in [6]. Also, the TGI in experiment [7], in experiment [8] and in [9] was above 25 µM throughout.
As for `[N-]=[N+]=N[C@H]1C[C@@H](CO)O[C@H]1n1cnc2c(N)ncnc21`, the TGI in experiment [10], in [2], in experiment [3], in experiment [4], in experiment [5] and in [7] was above 100 µM in each case. Besides, the TGI in experiment [8] and in experiment [9] was above 100 µM in each case.
`N#C/C1=C(\N)CCSSSC1`: the TGI in [10], in [2], in [3], in experiment [4], in experiment [5] and in [6] was above 100 µM in each case. Moreover, the TGI in experiment [7], in experiment [8] and in [9] was above 100 µM in each case.
As for `O=C1/C(=C/c2ccc(Cl)cc2)CCC1CCN1CCOCC1` (configuration not stated), the TGI in [10], in [1], in experiment [2], in experiment [3], in experiment [5] and in experiment [6] was above 100 µM each time. Further, the TGI in experiment [7], in [8] and in experiment [9] was above 100 µM throughout.
As to `Nc1c(C(=O)Nc2ccncc2)sc2nc3c(cc12)CCCCCCCC3`, the GI50 in experiment [10] is 0.851 µM; in experiment [1], 0.885 µM; in [2] it was 0.877 µM; in experiment [3], 0.905 µM; in experiment [4] it was 0.933 µM; in experiment [5], 0.948 µM. The GI50 in [6] is 0.933 µM; in [8] it was 0.9 µM; in [9], 0.957 µM. In addition, the TGI in experiment [10] was found to be 1.63 µM; in experiment [1], 1.67 µM; in experiment [2], 1.62 µM; in [3] it was 1.74 µM; in experiment [4], 1.73 µM; in experiment [5], 1.74 µM. For the same compound, the values for the TGI in experiment [6], in experiment [8] and in experiment [9] were 1.82 µM, 1.74 µM and 1.88 µM, respectively.
For the compound `COc1cc2c(c(OC)c1OC)-c1ccc(SC)c(=O)cc1C(NC=O)CC2` (configuration not stated), the TGI in [10] is above 85.2 µM; in experiment [1], above 100 µM; in experiment [2] it was below 0.0138 µM; in experiment [3], above 89.5 µM; in [4], 5.68 µM; in experiment [5] it was above 84.8 µM. Moreover, the TGI is above 85.5 µM in experiment [6], 50 µM in experiment [8] and above 100 µM in experiment [9].
As for `C=C(C)[C@@H]1CC[C@]2(C)[C@H](CC=C3[C@@H]4CC(C)(C)CC[C@]4(C(N)=O)CC[C@]32C)[C@@]1(C)CCC#N`, the GI50 was 3.6 µM in experiment [10]; 2.59 µM in [1]; 3.1 µM in experiment [2]; 1.84 µM in [3]; 4.35 µM in experiment [4]; 4.09 µM in experiment [5]. In addition, the GI50 in experiment [6] is 3.92 µM; in [8] it was 3.66 µM; in experiment [9] it was 3.21 µM. Besides, the TGI is above 100 µM in [10]; 9.15 µM in experiment [1]; 14.8 µM in experiment [2]; 3.7 µM in [3]; above 100 µM in experiment [4]; above 100 µM in experiment [5]. Also, the TGI in [6] was above 100 µM; in [8], above 100 µM; in [9], 30.1 µM.
Turning to `CC(=O)Oc1c2c(c(O)c3ccccc13)C(n1cnc3c(ncn3C3OC(CO)C4OC(C)(C)OC43)c1=N)CCC2` (configuration not stated), the TGI in [10] came out at 36.9 µM; in [1] it was 29 µM; in experiment [2] it was 29 µM; in experiment [3], 37.9 µM; in experiment [4] it was 33.3 µM; in experiment [5], 21.8 µM. The TGI in experiment [6] was found to be 40.9 µM; in experiment [8] it was 36.7 µM; in experiment [9] it was 29.6 µM.
Consider `COc1cccc(C2=NC(C(C)C)CO2)c1` (configuration not stated), for which the TGI in experiment [10], in [1], in experiment [2], in [3], in experiment [5] and in experiment [6] was above 100 µM in each case. Further, the TGI in experiment [8] and in experiment [9] was above 100 µM each time.
